Data taken from patent US20050277660A1, “Novel tetrahydroquinoline derivatives” (priority 2002, published 2005).

Columns and labels:
[1] = tested on: Orchiectomized (ORX) Rats; test: Effect on prostate, femoral bone mineral density and levator ani muscle in ORX rats, subcutaneous (Test Example 3); format: in vivo, rat; conditions: 4 weeks; for Femoral bone mineral density / Levator ani muscle weight / Prostate weight: 5 days per week, Mean ± SD; for Femoral bone mineral density: DEXA, right femur
Description: (§1) Effect on Prostate, Femoral Bone Mineral Density, and Levator Ani Muscle in Orchiectomized (ORX) Rats
(§2) Testes were removed from 12-week-old male SD rats. […] The compounds of the Examples and the DHT were each dissolved in dimethyl sulfoxide, and then diluted 10-fold with olive oil. The resulting solution of each concentration was used in the test. In an ORX control group, dimethyl sulfoxide diluted 10-fold with olive oil was used for the test.

[2] = biological target: T1, Rat Androgen Receptors (Rat AR) (Rattus norvegicus, UniProt P15207); test: Test for competitive binding to rat androgen receptors (Test Example 1); conditions: 100×(IC50 of bicalutamide)/(IC50 of compound); bicalutamide taken as 100; 3H-testosterone, rat prostate AR fraction
T1 construct: from tissue; host or cells: prostate of orchiectomized male SD rats (100,000 x g supernatant of the homogenate)
T1 sequence (P15207 1-902): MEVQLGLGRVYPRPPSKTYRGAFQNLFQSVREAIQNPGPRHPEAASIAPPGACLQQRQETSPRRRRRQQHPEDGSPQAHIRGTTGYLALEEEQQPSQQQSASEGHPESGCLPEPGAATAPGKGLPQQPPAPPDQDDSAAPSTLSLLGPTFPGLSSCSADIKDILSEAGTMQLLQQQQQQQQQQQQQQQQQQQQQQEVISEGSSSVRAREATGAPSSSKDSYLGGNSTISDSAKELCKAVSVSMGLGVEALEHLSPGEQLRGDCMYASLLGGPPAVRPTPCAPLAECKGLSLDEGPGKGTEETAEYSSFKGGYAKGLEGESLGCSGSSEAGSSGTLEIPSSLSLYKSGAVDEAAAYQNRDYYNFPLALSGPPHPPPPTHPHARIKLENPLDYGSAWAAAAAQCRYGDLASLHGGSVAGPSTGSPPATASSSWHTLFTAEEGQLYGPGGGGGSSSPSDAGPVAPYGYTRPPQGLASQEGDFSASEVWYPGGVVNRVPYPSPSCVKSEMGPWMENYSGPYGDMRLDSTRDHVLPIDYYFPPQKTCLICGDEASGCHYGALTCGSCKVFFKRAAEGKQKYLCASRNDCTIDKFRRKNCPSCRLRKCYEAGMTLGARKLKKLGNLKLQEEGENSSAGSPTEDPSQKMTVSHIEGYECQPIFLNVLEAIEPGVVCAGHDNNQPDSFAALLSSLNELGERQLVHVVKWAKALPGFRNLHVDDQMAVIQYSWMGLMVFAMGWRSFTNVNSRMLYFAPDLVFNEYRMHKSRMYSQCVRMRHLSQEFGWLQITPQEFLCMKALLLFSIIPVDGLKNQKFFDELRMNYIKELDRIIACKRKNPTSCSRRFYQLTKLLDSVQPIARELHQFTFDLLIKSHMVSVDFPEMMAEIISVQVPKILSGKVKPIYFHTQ
Description: Test for Competitive Binding to Rat Androgen Receptors (Rat AR)
Preparation of rat AR fraction: Prostates were harvested into ice-cooled ET buffer (10 mM Tris, 1 mM EDTA, 5 mM DTT, 10 mM sodium molybdate, pH 7.4) 3 days after orchiectomy in 11-week-old male SD rats. The prostate was finely cut, and ET buffer was added, whereafter the mixture was homogenized using a homogenizer. The homogenate was ultracentrifuged (100,000×g, 60 min, 4° C.), and the supernatant was used as a rat AR fraction (hereinafter referred to as ARF).
Binding test: ^3H-testosterone (hereinafter referred to as ^3H-T) was diluted with ET buffer. Dihydrotestosterone (DHT) was prepared so as to have a concentration (final concentration 1 μM) 400 times the maximum concentration of ^3H-T (2.5 nM). The ^3H-T solution was added to a 1.5 ml tube containing DHT, no DHT, or various concentrations of a test compound. Further, 200 μg ARF was added to adjust the final volume to 100 μl. The mixture was incubated for 2 hours at 4° C., and then 300 μl of a 0.05% dextran T70-1.0% activated carbon solution was added. The mixture was further incubated for 15 minutes in ice to remove the free ^3H-T by adsorption. […] The mixture was stirred, allowed to stand, and measured for ^3H radioactivity with a liquid scintillation counter.

[3] = tested on: Orchiectomized (ORX) Rats; test: Effect of oral administration on prostate, femoral bone mineral density and levator ani muscle in ORX rats (Test Example 4); format: in vivo, rat; conditions: 30 mg/kg orally twice daily, 4 weeks
Description: Effect of the Oral Administration on Prostate, Femoral Bone Mineral Density, and Levator Ani Muscle in Orchiectomized (ORX) Rats
Testes were removed from 12-week-old male SD rats. From the following day onward, the compound of Example 16 (30 mg/5 ml/kg) was orally administered twice daily for 4 consecutive weeks on 7 days per week. The test compound was suspended in a 0.5% methylcellulose solution as a solvent, and used in the test. In an ORX control group, a 0.5% methylcellulose solution (5 ml/kg) was administered. The rats, which had not been orchiectomized, but had been subjected to laparotomy, followed by closure of the abdomen, were used as a sham control group. On the next day after final administration, the wet weights of the ventral prostate and the levator ani muscle were measured, and the bone mineral density of the right femur was measured by the DEXA method (dual energy X-ray absorptiometry), to evaluate the in vivo effect of the compound of Example 16.

[4] = tested on: Orchiectomized (ORX) Rats; test: Effect on prostate, femoral bone mineral density and levator ani muscle in ORX rats, subcutaneous (Test Example 2); format: in vivo, rat; conditions: 4 weeks; for Femoral bone mineral density / Levator ani muscle weight / Prostate weight: 5 days per week, Mean ± SD; for Femoral bone mineral density: DEXA, right femur
Description: as §1
as §2, with “compound” for “compounds”, “Example” for “Examples”

Question: For `CC(=O)Nc1ccc(C(=O)NCC(C)(C)[C@H]2Nc3ccc(C#N)cc3[C@H]3CCC[C@H]32)cn1` (relative stereo) [Example 23, (3aR*,4S*,9bS*)-6-Acetamido-N-[2-(8-cyano-2,3,3a,4,5,9b-hexahydro-1H-cyclopenta[c]quinolin-4-yl)-2-methylpropyl]nicotinamide], which “Femoral bone mineral density” value ([1]; 30 mg/kg s.c. once daily) is on record?
Answer: 137 ± 5 mg/cm^2

Question: And the “Levator ani muscle weight” value ([1]; 30 mg/kg s.c. once daily)?
Answer: 72 ± 6 mg/100 g body weight

Question: And the Prostate weight ([1]; 30 mg/kg s.c. once daily)?
Answer: 111 ± 14 mg/100 g body weight

Question: And the “weight of the prostate relative to that in the sham control group” value (“weight of the prostate relative to that” below) ([1]; 30 mg/kg s.c.)?
Answer: about 90%

Question: And the “RBA (relative binding inhibition rate, Relative Binding Affinity)” value [2]?
Answer: 420

Question: With `CC(C)(CNC(=O)c1ccc(OCC(F)(F)F)cc1)[C@H]1Nc2ccc(C#N)cc2[C@H]2CCC[C@H]21` (relative stereo) [Example 8, (3aR*,4S*,9bS*)-N-[2-(8-Cyano-2,3,3a,4,5,9b-hexahydro-1H-cyclopenta[c]quinolin-4-yl)-2-methylpropyl]-4-(2,2,2-trifluoroethoxy)benzamide] as the compound, how does the “Femoral bone mineral density” value ([1]; 30 mg/kg s.c. once daily) read?
Answer: 136 ± 3 mg/cm^2

Question: And the “Levator ani muscle weight” value ([1]; 30 mg/kg s.c. once daily)?
Answer: 58 ± 6 mg/100 g body weight

Question: What about the Prostate weight ([1]; 30 mg/kg s.c. once daily) of the same compound?
Answer: 62 ± 10 mg/100 g body weight

Question: And the “weight of the prostate relative to that” value ([1]; 30 mg/kg s.c.)?
Answer: about 50%

Question: `CC(C)(CNC(=O)c1ccc(NC=O)cc1)[C@H]1Nc2ccc(C#N)cc2[C@H]2CCC[C@H]21` (relative stereo) [Example 16, (3aR*,4S*,9bS*)-N-[2-(8-Cyano-2,3,3a,4,5,9b-hexahydro-1H-cyclopenta[c]quinolin-4-yl)-2-methylpropyl]-4-formylaminobenzamide] was tested. Which “weight of the prostate relative to that” value [3] did it give?
Answer: about 90%

Question: What about the “Femoral bone mineral density” value ([3]; 7 days per week, DEXA, right femur, Mean ± SD) of the same compound?
Answer: 136 ± 10 mg/cm^2

Question: And the “Levator ani muscle weight” value ([3]; 7 days per week, Mean ± SD)?
Answer: 60 ± 6 mg/100 g body weight

Question: And the Prostate weight ([3]; 7 days per week, Mean ± SD)?
Answer: 90 ± 24 mg/100 g body weight

Question: And the “RBA (relative binding inhibition rate, Relative Binding Affinity)” value [2]?
Answer: 406

Question: Which results are given for `CC(C)(CNC(=O)c1ccc(OC(F)(F)F)cc1)[C@H]1Nc2ccc(C#N)cc2[C@H]2CCC[C@H]21` (relative stereo) [Example 1, (3aR*,4S*,9bS*)-N-[2-(8-cyano-2,3,3a,4,5,9b-hexahydro-1H-cyclopenta[c]quinolin-4-yl)-2-methylpropyl]-4-trifluoromethoxybenzamide]?
Answer: Femoral bone mineral density ([4]; 30 mg/kg s.c. once daily): 137 ± 7 mg/cm^2; Levator ani muscle weight ([4]; 30 mg/kg s.c. once daily): 60 ± 6 mg/100 g body weight; Prostate weight ([4]; 30 mg/kg s.c. once daily): 70 ± 13 mg/100 g body weight; weight of the prostate relative to that in the sham control group ([4]; 30 mg/kg s.c.): about 74%

Question: How did the “Femoral bone mineral density” value ([1]; 10 mg/kg s.c. once daily) turn out when `C[C@]12CCC(=O)C[C@@H]1CC[C@@H]1[C@@H]2CC[C@]2(C)[C@@H](O)CC[C@@H]12` [DHT, dihydrotestosterone, reference compound] was run?
Answer: 138 ± 6 mg/cm^2

Question: What about the “Levator ani muscle weight” value ([1]; 10 mg/kg s.c. once daily) of the same compound?
Answer: 85 ± 9 mg/100 g body weight

Question: What about the Prostate weight ([1]; 10 mg/kg s.c. once daily) of the same compound?
Answer: 162 ± 27 mg/100 g body weight

Question: And the “weight of the prostate relative to that” value ([1]; 10 mg/kg s.c.)?
Answer: about 130%

Question: And the “Femoral bone mineral density” value ([4]; 10 mg/kg s.c. once daily)?
Answer: 138 ± 6 mg/cm^2

Question: What about the “Levator ani muscle weight” value ([4]; 10 mg/kg s.c. once daily) of the same compound?
Answer: 74 ± 6 mg/100 g body weight

Question: What about the Prostate weight ([4]; 10 mg/kg s.c. once daily) of the same compound?
Answer: 166 ± 33 mg/100 g body weight

Question: What about the “weight of the prostate relative to that” value ([4]; 10 mg/kg s.c.) of the same compound?
Answer: about 175%
